# In US11149031B2, “Substituted N-(3-fluoropropyl)-pyrrolidine compounds, processes for their preparation and therapeutic uses thereof” (SANOFI, priority 2016, dated 2021):
# What was measured:
# [1] = target: His6-ERα298-554 D538G mutant (ERα ligand-binding domain) (Homo sapiens (Human), UniProt P03372, D538G); assay: Test A: biochemical antagonist activity, LanthaScreen TR-FRET ERα coactivator assay, D538G mutant; conditions: protocol with 3 nM estradiol; read-out: Antagonism D538G IC50
# Method: (§1) Test A: Biochemical Antagonist Activity on Wild Type (WT) and Mutants
# (§2) Estrogen Receptors Test A involves measuring the in vitro antagonist activity of the compounds of the invention on estrogen receptors.
# (§3) The measurements of the antagonist activities were made using an estrogen receptor coactivator assay as described hereunder.
# (§4) Antagonistic potency of compounds was evaluated using LanthaScreen® TR-FRET ERα Coactivator Assay (ThermoFisher) with modifications. […] The assay works in a homogeneous mix-and-read format. In a typical experiment, a 4 μL mixture of 0.5 nM His6-ERα298-554, 0.5 nM Tb-labeled His6 antibody, 250 nM PGC1a peptide, and 3 nM estradiol (or 10 nM estradiol) in 100 mM potassium phosphate, pH 7.4, 0.01% Tween-20, 0.02% NaN3, 5 mM DTT, was added to 40 nL test compound in DMSO and incubated overnight at room temperature. The TR-FRET 520:495 nm emission ratio was calculated and used to determine the IC50 value from a dose response curve fit to the 4-parameter logistic equation.
# [2] = target: His6-ERα298-554 WT (ERα ligand-binding domain) (Homo sapiens (Human), UniProt P03372); assay: Test A: biochemical antagonist activity, LanthaScreen TR-FRET ERα coactivator assay, WT; conditions: protocol with 3 nM estradiol; read-out: Antagonism WT IC50
# Method: as §1, §2, §3, §4
# [3] = target: His6-ERα298-554 Y537S mutant (ERα ligand-binding domain) (Homo sapiens (Human), UniProt P03372, Y537S); assay: Test A: biochemical antagonist activity, LanthaScreen TR-FRET ERα coactivator assay, Y537S mutant; conditions: protocol with 3 nM estradiol; read-out: Antagonism Y537S IC50
# Method: as §1, §2, §3, §4
# [4] = target: ERα in MCF7 cells (Homo sapiens (Human), UniProt P03372); assay: Test C: estrogen receptor degradation activity, ERα in cell western assay in MCF7 cells; format: cell-based; conditions: for DC50: 4 hours post compound addition, ERα in cell western, read-out: Degradation IC50; for % Degradation at 3 μM: 4 hours, relative to fulvestrant
# Method: Test C: Estrogen Receptor Degradation Activity
# Test C involves measuring the in vitro degradation activity of the compounds of the invention.
# The measurements of the degradation activities were made using abreast cancer cell ERα in cell western assay as described hereunder.
# MCF7 cells (ATCC) were seeded in 384 wells microplate (collagen coated) at concentration of >9990 cells/30 μL per well in red phenol free MEM alpha medium (invitrogen) containing 5% charcoal dextran striped FBS. The following day, 9 points serial 1:5 dilution of each compound were added to the cells in 2.5 μL at final concentrations ranging from 3-0.000018 μM or 0.1 μM for fulvestrant (using as positive control). At 4 hours post compounds addition the cells were fixed by adding 25 μL of formalin (final concentration 5% formalin containing 0.1% triton) for 10 minutes at room temperature and then washed twice with PBS. Then, 50 μL of LI-COR blocking buffer containing 0.1% Triton was added to plate for 30 minutes at room temperature. LI-COR blocking buffer was removed and cells were incubated overnight at cold room with 50 μL anti-ER rabbit monoclonal antibody (Thermo scientific MA1-39540) diluted at 1:>999 in LI-COR blocking buffer containing 0.1% tween-20. Wells which were treated with blocking but no antibody were used as background control. Wells were washed twice with PBS (0.1% tween-20) and incubated at 37° C. for 60 minutes in LI-COR (0.1% tween-20) containing goat anti-rabbit antibody Alexa 488 (1:>999) and Syto-64 a DNA dye (2 μM final concentration). Cells were then washed 3 times in PBS and scanned in ACUMEN explorer (TTP-Labtech). Integrated intensities in the green fluorescence and red fluorescence were measured to determine the levels of ERα and DNA respectively.
# His6-ERα298-554 D538G mutant (ERα ligand-binding domain), sequence (P03372 298-554 D538G): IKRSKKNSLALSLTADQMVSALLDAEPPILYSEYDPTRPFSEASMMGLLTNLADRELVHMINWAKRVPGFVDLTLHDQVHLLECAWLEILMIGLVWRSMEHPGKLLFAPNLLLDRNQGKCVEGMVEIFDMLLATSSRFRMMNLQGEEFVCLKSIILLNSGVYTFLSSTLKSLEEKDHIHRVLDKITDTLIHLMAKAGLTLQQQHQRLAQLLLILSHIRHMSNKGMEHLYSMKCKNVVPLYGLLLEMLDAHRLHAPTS
# His6-ERα298-554 WT (ERα ligand-binding domain), sequence (P03372 298-554): as the sequence (P03372 298-554 D538G) above, with G241D counted along it
# His6-ERα298-554 Y537S mutant (ERα ligand-binding domain), sequence (P03372 298-554 Y537S): as the sequence (P03372 298-554 D538G) above, with Y240S, G241D counted along it
# ERα in MCF7 cells, sequence (P03372 whole entry): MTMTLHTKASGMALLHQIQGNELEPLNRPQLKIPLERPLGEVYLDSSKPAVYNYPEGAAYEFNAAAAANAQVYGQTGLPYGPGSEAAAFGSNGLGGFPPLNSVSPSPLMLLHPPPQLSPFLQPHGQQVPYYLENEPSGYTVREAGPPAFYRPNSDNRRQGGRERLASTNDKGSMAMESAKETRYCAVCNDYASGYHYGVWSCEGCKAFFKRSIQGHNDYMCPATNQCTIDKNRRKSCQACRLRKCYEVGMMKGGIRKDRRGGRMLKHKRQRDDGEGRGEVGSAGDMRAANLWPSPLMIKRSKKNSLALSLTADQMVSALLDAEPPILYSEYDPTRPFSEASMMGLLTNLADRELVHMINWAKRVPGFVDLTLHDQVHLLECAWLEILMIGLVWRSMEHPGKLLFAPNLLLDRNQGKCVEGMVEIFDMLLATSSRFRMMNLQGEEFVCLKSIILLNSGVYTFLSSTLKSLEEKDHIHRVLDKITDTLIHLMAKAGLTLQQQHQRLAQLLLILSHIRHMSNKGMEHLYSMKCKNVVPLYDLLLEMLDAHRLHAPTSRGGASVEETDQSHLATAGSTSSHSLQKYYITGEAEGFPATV
SMILES,IC50 [1],IC50 [2],IC50 [3],DC50 [4],% Degradation at 3 μM [4]
"Cc1ccc(C2=C(c3ccc(O[C@H]4CCN(CCCF)C4)cc3)c3cc(C)c(O)cc3OCC2)c(F)c1 [Example 140, 4-(2-fluoro-4-methyl-phenyl)-5-[4-[(3S)-1-(3-fluoropropyl)pyrrolidin-3-yl]oxyphenyl]-7-methyl-2,3-dihydro-1-benzoxepin-8-ol]",644 nM,36 nM,542 nM,3 nM,85%
"CCOc1ccc(C2=C(c3ccc(O[C@H]4CCN(CCCF)C4)cc3)c3ccc(O)cc3OCC2)cn1 [Example 127, 4-(6-ethoxy-3-pyridyl)-5-[4-[(3S)-1-(3-fluoropropyl)pyrrolidin-3-yl]oxyphenyl]-2,3-dihydro-1-benzoxepin-8-ol]",49 nM,3 nM,24 nM,0.8 nM,90%
"Cc1cc2c(cc1O)OCCC(c1ccc3[nH]ccc3c1)=C2c1ccc(O[C@H]2CCN(CCCF)C2)cc1 [Example 139, 5-[4-[(3S)-1-(3-fluoropropyl)pyrrolidin-3-yl]oxyphenyl]-4-(1H-indol-5-yl)-7-methyl-2,3-dihydro-1-benzoxepin-8-ol]",1170 nM,68 nM,819 nM,9 nM,73%
"Oc1ccc2c(c1F)OCCC(c1ccc3c(c1)NCC3)=C2c1ccc(O[C@H]2CCN(CCCF)C2)cc1 [Example 132, 9-fluoro-5-[4-[(3S)-1-(3-fluoropropyl)pyrrolidin-3-yl]oxyphenyl]-4-indolin-6-yl-2,3-dihydro-1-benzoxepin-8-ol]",473 nM,28 nM,334 nM,2 nM,88%
"Cc1ccc(C2=C(c3ccc(O[C@H]4CCN(CCCF)C4)cc3)c3cc(O)ccc3SCC2)c(F)c1 [Example 171, 4-(2-fluoro-4-methyl-phenyl)-5-[4-[(3S)-1-(3-fluoropropyl)pyrrolidin-3-yl]oxyphenyl]-2,3-dihydro-1-benzothiepin-7-ol]",140 nM,24 nM,87 nM,0.2 nM,85%
"Oc1ccc2c(c1F)OCCC(c1ccc3cc[nH]c3c1)=C2c1ccc(O[C@H]2CCN(CCCF)C2)cc1 [Example 131, 9-fluoro-5-[4-[(3S)-1-(3-fluoropropyl)pyrrolidin-3-yl]oxyphenyl]-4-(1H-indol-6-yl)-2,3-dihydro-1-benzoxepin-8-ol]",340 nM,19 nM,276 nM,3 nM,83%
"Cc1c(O)ccc2c1OCCC(c1cccc3[nH]ccc13)=C2c1ccc(O[C@H]2CCN(CCCF)C2)cc1 [Example 130, 5-[4-[(3S)-1-(3-fluoropropyl)pyrrolidin-3-yl]oxyphenyl]-4-(1H-indol-4-yl)-9-methyl-2,3-dihydro-1-benzoxepin-8-ol]",1190 nM,70 nM,777 nM,18 nM,73%
"Cc1cc2c(cc1O)OCCC(c1cccc(O)c1)=C2c1ccc(O[C@H]2CCN(CCCF)C2)cc1 [Example 136, 5-[4-[(3S)-1-(3-fluoropropyl)pyrrolidin-3-yl]oxyphenyl]-4-(3-hydroxyphenyl)-7-methyl-2,3-dihydro-1-benzoxepin-8-ol]",59 nM,4 nM,44 nM,1 nM,79%
"O=S1(=O)CCC(c2cccc(F)c2Cl)=C(c2ccc(O[C@H]3CCN(CCCF)C3)cc2)c2ccc(O)cc21 [Example 232, 4-(2-chloro-3-fluoro-phenyl)-5-[4-[(3S)-1-(3-fluoropropyl)pyrrolidin-3-yl]oxyphenyl]-1,1-dioxo-2,3-dihydro-1λ^6-benzothiepin-8-ol]",99 nM,16 nM,78 nM,0.2 nM,95%
"Oc1ccc(C2=C(c3ccc(O[C@H]4CCN(CCCF)C4)cc3)c3cc(O)ccc3SCC2)cc1 [Example 177, 5-[4-[(3S)-1-(3-fluoropropyl)pyrrolidin-3-yl]oxyphenyl]-4-(4-hydroxyphenyl)-2,3-dihydro-1-benzothiepin-7-ol]",41 nM,4 nM,29 nM,0.2 nM,75%
"Cc1cc(F)ccc1C1=C(c2ccc(O[C@H]3CCN(CCCF)C3)cc2)c2cc(O)ccc2SCC1 [Example 180, 4-(4-fluoro-2-methyl-phenyl)-5-[4-[(3S)-1-(3-fluoropropyl)pyrrolidin-3-yl]oxyphenyl]-2,3-dihydro-1-benzothiepin-7-ol]",36 nM,7 nM,16 nM,3 nM,80%
"Oc1ccc(C2=C(c3ccc(O[C@H]4CCN(CCCF)C4)cc3)c3ccc(O)cc3SCC2)c(F)c1 [Example 169, 4-(2-fluoro-4-hydroxy-phenyl)-5-[4-[(3S)-1-(3-fluoropropyl)pyrrolidin-3-yl]oxyphenyl]-2,3-dihydro-1-benzothiepin-8-ol]",5 nM,2 nM,3 nM,0.2 nM,85%
"Oc1ccc2c(c1F)OCCC(c1cccc3c1CCN3)=C2c1ccc(O[C@H]2CCN(CCCF)C2)cc1 [Example 134, 9-fluoro-5-[4-[(3S)-1-(3-fluoropropyl)pyrrolidin-3-yl]oxyphenyl]-4-indolin-4-yl-2,3-dihydro-1-benzoxepin-8-ol]",328 nM,19 nM,225 nM,3 nM,85%
"Oc1ccc(C2=C(c3ccc(O[C@H]4CCN(CCCF)C4)cc3)c3cc(O)ccc3CC2)c(F)c1 [Example 6, 7-(2-fluoro-4-hydroxy-phenyl)-8-[4-[(3S)-1-(3-fluoropropyl)pyrrolidin-3-yl]oxyphenyl]-5,6-dihydronaphthalen-2-ol]",13 nM,2 nM,8 nM,0.2 nM,84%
"Oc1ccc2c(c1Cl)OCCC(c1ccc3cc[nH]c3c1)=C2c1ccc(O[C@H]2CCN(CCCF)C2)cc1 [Example 123, 9-chloro-5-[4-[(3S)-1-(3-fluoropropyl)pyrrolidin-3-yl]oxyphenyl]-4-(1H-indol-6-yl)-2,3-dihydro-1-benzoxepin-8-ol]",2290 nM,156 nM,1430 nM,15 nM,81%
"Oc1ccc2c(c1)C(c1ccc(O[C@H]3CCN(CCCF)C3)cc1)=C(c1ccc3[nH]ccc3c1)CC2 [Example 5, 8-[4-[(3S)-1-(3-fluoropropyl)pyrrolidin-3-yl]oxyphenyl]-7-(1H-indol-5-yl)-5,6-dihydronaphthalen-2-ol]",209 nM,28 nM,72 nM,0.5 nM,81%
"Cc1cc2c(cc1O)OCCC(c1ccc3c(c1)CCN3)=C2c1ccc(O[C@H]2CCN(CCCF)C2)cc1 [Example 137, 5-[4-[(3S)-1-(3-fluoropropyl)pyrrolidin-3-yl]oxyphenyl]-4-indolin-5-yl-7-methyl-2,3-dihydro-1-benzoxepin-8-ol]",1710 nM,250 nM,1220 nM,5 nM,75%
"Cc1c(Cl)cccc1C1=C(c2ccc(O[C@H]3CCN(CCCF)C3)cc2)c2ccc(O)cc2OCC1 [Example 101, 4-(3-chloro-2-methyl-phenyl)-5-[4-[(3S)-1-(3-fluoropropyl)pyrrolidin-3-yl]oxyphenyl]-2,3-dihydro-1-benzoxepin-8-ol]",50 nM,6 nM,25 nM,0.6 nM,92%
